Holding throughout (test): relative viability (nuclei count vs DMSO), 5 days (fraction); higher = more cells survive
Compound in the assay “AZD1208 + Lapatinib”: N[C@@H]1CCCN(c2c(/C=C3\SC(=O)NC3=O)cccc2-c2ccccc2)C1 [AZD1208] + CS(=O)(=O)CCNCc1ccc(-c2ccc3ncnc(Nc4ccc(OCc5cccc(F)c5)c(Cl)c4)c3c2)o1 [Lapatinib] (partner 2 µM)
Put shortly: (§1)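 Lung cancer cell lines, seeded in 1536-well plates, were treated the following day by pin tool with a single drug or with five library-drug doses (not always all listed) in √10 steps on top of a fixed anchor-drug dose. Cells were fixed and nuclei stained in one step after 5 days, and nuclei were counted. Relative viability is the nuclei count for treated wells divided by that for vehicle wells, reported as medians of duplicate plates.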

Compound in the assay “XMD14-99 + Alpelisib”: CN1CCN(CC1)C2=CC(=C(C=C2)NC3=NC(=C(S3)C(=O)C4=C(C=CC=C4Cl)Cl)N)OC [XMD14-99] + Cc1nc(NC(=O)N2CCC[C@H]2C(N)=O)sc1-c1ccnc(C(C)(C)C(F)(F)F)c1 [Alpelisib] (partner 2 µM)
Put shortly: as §1

Compound in the assay “XMD14-99 + Decitabine”: CN1CCN(CC1)C2=CC(=C(C=C2)NC3=NC(=C(S3)C(=O)C4=C(C=CC=C4Cl)Cl)N)OC [XMD14-99] + Nc1ncn([C@H]2C[C@H](O)[C@@H](CO)O2)c(=O)n1 [Decitabine] (partner 2 µM)
The gist of the method:
as §1

Compound in the assay “AZD1208 + Alpelisib”: N[C@@H]1CCCN(c2c(/C=C3\SC(=O)NC3=O)cccc2-c2ccccc2)C1 [AZD1208] + Cc1nc(NC(=O)N2CCC[C@H]2C(N)=O)sc1-c1ccnc(C(C)(C)C(F)(F)F)c1 [Alpelisib] (partner 2 µM)
Put shortly:
as §1

This is an account of results in the supplement of paper PMC10307832.

For the cell line SK-MES-1, the relative viability amounted to 0.407 with AZD1208 + Lapatinib (first compound 0.08 µM); 0.418 with AZD1208 + Lapatinib (first compound 0.253 µM); 0.421 with AZD1208 + Lapatinib (first compound 0.8 µM); 0.415 with AZD1208 + Lapatinib (first compound 2.53 µM); 0.374 with AZD1208 + Lapatinib (first compound 8 µM); 0.924 with XMD14-99 + Alpelisib (first compound 0.08 µM). In addition, the relative viability in the assay with XMD14-99 + Alpelisib (first compound 0.8 µM) stood at 0.909; with XMD14-99 + Alpelisib (first compound 2.53 µM), 0.851; with XMD14-99 + Alpelisib (first compound 8 µM), 0.591; with XMD14-99 + Decitabine (first compound 0.08 µM), 0.421; with XMD14-99 + Decitabine (first compound 0.8 µM), 0.389; in the assay with XMD14-99 + Decitabine (first compound 2.53 µM), 0.451. In addition, the relative viability with XMD14-99 + Decitabine (first compound 8 µM) worked out at 0.336; with AZD1208 + Alpelisib (first compound 0.08 µM), 0.697; in the assay with AZD1208 + Alpelisib (first compound 0.253 µM), 0.856; in the assay with AZD1208 + Alpelisib (first compound 0.8 µM), 0.628; with AZD1208 + Alpelisib (first compound 2.53 µM) it was 0.704; with AZD1208 + Alpelisib (first compound 8 µM), 0.683.

On to SW 1573, for which the relative viability in the assay with AZD1208 + Lapatinib (first compound 0.08 µM) was 1.02; with AZD1208 + Lapatinib (first compound 0.253 µM), 1.07; with AZD1208 + Lapatinib (first compound 0.8 µM), 0.959; with AZD1208 + Lapatinib (first compound 2.53 µM), 1.01; with AZD1208 + Lapatinib (first compound 8 µM), 1.05; with XMD14-99 + Alpelisib (first compound 0.08 µM), 0.8. The relative viability with XMD14-99 + Alpelisib (first compound 0.8 µM) was 0.737; in the assay with XMD14-99 + Alpelisib (first compound 2.53 µM), 0.697; with XMD14-99 + Alpelisib (first compound 8 µM), 0.651; with XMD14-99 + Decitabine (first compound 0.08 µM), 0.451; with XMD14-99 + Decitabine (first compound 0.8 µM) it was 0.545; with XMD14-99 + Decitabine (first compound 2.53 µM), 0.475. Also, the relative viability with XMD14-99 + Decitabine (first compound 8 µM) came out at 0.334; with AZD1208 + Alpelisib (first compound 0.08 µM), 0.65; in the assay with AZD1208 + Alpelisib (first compound 0.253 µM), 0.705; with AZD1208 + Alpelisib (first compound 0.8 µM) it was 0.595; in the assay with AZD1208 + Alpelisib (first compound 2.53 µM) it was 0.505; with AZD1208 + Alpelisib (first compound 8 µM), 0.592.
